Source: patent US20030022871A1, “Method for modulating tumor growth and metastasis of tumor cells” (priority 2002, published 2003)

How the values were obtained:
E12 [1] = molecular target: T1, E12 (Homo sapiens, UniProt P15923); assay: Native polyacrylamide gel binding of tritiated tetracycline to protein; details: 10-30-fold molar excess of tritiated tetracycline, PBS, room temperature 30 minutes, 8% native gel autoradiogram
T1 construct: expressed in transfected cells
T1 sequence (P15923 1-654): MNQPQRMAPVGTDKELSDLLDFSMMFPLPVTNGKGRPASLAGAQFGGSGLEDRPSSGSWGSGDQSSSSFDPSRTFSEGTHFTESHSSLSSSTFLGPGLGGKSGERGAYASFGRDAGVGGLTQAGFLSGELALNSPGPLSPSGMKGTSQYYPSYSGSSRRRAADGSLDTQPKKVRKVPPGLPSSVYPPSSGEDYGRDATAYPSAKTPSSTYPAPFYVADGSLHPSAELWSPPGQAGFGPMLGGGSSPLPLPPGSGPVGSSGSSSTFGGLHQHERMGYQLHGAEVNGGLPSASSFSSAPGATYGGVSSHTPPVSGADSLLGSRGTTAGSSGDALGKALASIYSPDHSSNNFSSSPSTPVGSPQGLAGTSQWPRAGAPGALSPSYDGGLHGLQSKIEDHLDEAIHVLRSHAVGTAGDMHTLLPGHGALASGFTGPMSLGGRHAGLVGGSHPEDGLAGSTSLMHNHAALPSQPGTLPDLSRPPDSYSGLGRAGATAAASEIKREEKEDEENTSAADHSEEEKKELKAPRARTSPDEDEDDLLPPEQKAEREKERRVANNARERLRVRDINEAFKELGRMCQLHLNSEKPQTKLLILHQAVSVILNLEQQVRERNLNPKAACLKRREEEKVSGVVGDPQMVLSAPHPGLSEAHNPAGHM
Method: (§1) Radiolabeled tetracycline (tritiated) was mixed with purified Id1 protein and other proteins separately to permit contact between the labeled tetracycline and the proteins. […] The complexes could then be visualized in an autoradiogram of the gel, e.g., exposure of the gel to x-ray film.
(§2) In this experiment, a 10-30-fold molar excess of tritiated tetracycline was added to the indicated proteins separately in 10 Tl reaction tube containing one of the proteins and phosphate buffered saline at physiological pH. Proteins used in this experiment were:
(§3) The mixtures were incubated at room temperature for 30 minutes. Bromophenol blue was added to each sample at 0.01% (v/v). The samples were then electrophoresed on an 8% native polyacrylamide gel.
(§4) After electrophoresing the samples, the gel was dried and exposed to autoradiographic film for 12 hours to make an autoradiogram of the gel.

E47 = molecular target: T2, E47 (Homo sapiens, UniProt P15923); assay: as above; details: 10-30-fold molar excess of tritiated tetracycline, PBS, room temperature 30 minutes, 8% native gel autoradiogram
T2 sequence (P15923 1-651 isoform P15923-2): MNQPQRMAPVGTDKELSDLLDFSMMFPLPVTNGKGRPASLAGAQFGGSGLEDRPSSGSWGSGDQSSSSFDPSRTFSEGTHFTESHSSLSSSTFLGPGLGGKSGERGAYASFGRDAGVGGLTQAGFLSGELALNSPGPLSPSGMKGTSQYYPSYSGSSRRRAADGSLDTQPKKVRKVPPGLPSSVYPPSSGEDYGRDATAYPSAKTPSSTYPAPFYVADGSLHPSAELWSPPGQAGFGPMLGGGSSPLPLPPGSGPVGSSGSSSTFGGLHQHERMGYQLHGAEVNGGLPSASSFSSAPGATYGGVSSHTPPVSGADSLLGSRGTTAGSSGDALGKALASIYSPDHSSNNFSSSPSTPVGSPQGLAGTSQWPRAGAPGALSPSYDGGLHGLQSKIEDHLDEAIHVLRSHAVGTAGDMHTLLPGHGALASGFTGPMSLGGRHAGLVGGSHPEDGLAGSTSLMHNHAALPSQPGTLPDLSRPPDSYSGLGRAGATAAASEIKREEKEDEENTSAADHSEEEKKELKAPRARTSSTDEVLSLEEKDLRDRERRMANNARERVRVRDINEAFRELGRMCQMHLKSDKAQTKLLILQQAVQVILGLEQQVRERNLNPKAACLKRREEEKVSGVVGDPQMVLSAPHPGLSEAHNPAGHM
Method: as §1, §2, §3, §4

[2] = system: Hsp90 (heat shock protein 90); assay: as above; details: 10-30-fold molar excess of tritiated tetracycline, PBS, room temperature 30 minutes, 8% native gel autoradiogram
Method: as §1, §2, §3, §4

[3] = system: Id old, an old preparation of Id in which the protein's conformation is perturbed; assay: as above; details: 10-30-fold molar excess of tritiated tetracycline, PBS, room temperature 30 minutes, 8% native gel autoradiogram
Method: as §1, §2, §3, §4

[4] = system: Id1 new, the normal protein (native Id1); assay: as above; details: 10-30-fold molar excess of tritiated tetracycline, PBS, room temperature 30 minutes, 8% native gel autoradiogram
Method: as §1, §2, §3, §4

MyoD = molecular target: T3, MyoD (Homo sapiens, UniProt P15172); assay: as above; details: 10-30-fold molar excess of tritiated tetracycline, PBS, room temperature 30 minutes, 8% native gel autoradiogram
T3 sequence (P15172 1-320): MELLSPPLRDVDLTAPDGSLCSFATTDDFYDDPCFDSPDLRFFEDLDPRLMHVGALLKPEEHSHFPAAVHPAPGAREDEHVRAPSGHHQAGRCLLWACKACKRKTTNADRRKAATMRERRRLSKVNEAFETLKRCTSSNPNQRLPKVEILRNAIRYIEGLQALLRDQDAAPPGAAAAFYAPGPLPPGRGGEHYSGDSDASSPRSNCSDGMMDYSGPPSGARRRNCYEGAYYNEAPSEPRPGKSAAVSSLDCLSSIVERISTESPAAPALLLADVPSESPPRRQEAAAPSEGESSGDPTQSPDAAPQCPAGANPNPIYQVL
Method: as §1, §2, §3, §4

Id1 [5] = molecular target: T4, Id1 (Homo sapiens, UniProt P41134); assay: Gel shift: Id1 antagonism of E47 binding to radiolabeled DNA; format: biochemical
T4 sequence (P41134 1-155): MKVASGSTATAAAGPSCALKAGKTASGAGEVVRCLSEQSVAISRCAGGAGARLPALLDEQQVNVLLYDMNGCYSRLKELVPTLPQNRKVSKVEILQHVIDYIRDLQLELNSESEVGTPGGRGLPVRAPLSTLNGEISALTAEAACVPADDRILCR
Method: Purified Id1 and its target protein E12 are mixed to together in vitro, and the ability of Id1 to antagonize DNA binding capacity of E12 is measured. To measure E12 DNA binding activity, the mixtures were incubated with radiolabeled DNA sequences to which E12 binds and the protein/DNA complexes resolved on a native polyacrylamide gel as described [Benezra, 1994 #463].
In this experiment, 50 nanograms of E47 protein (described in Example I) was present in reaction mixtures of 100, 200, and 400 nanograms of Id1, designated +, ++, and +++ respectively in FIG. 2. Tetracycline was added to the reactions as indicated (+) to about 200 Tg/ml final concentration. Radiolabeled DNA to which E47 binds was then introduced in each mixture. […] Each of the mixtures was permitted to incubate at room temperature for about 30 minutes. Then, the mixtures were electrophoresed in an 8% native polyacrylamide gel as described in Benezra, 1994.
After electrophoresing the samples, the gel was dried and exposed to autoradiographic film to make an autoradiograph of the gel.

Id1 [6] = molecular target: T4, Id1; assay: 4R-TK-CAT reporter assay with E12 and Id1 plasmids in mammalian culture cells; format: cell-based
Text: (§5) Plasmids capable of expressing proteins when introduced into mammalian culture cells were used to test the activity of those proteins. In the assay depicted below, a plasmid that contains sequences to which the E12 protein binds upstream of a reporter gene (4R-TK-CAT) ix mixed with an E12 encoding plasmid and an Id plasmid to see if Id can inhibit the ability of E12 protein to bind and activate the reporter gene, in a similar to that described in Pesce, 1993 #163. If E12 binds to its sequence in the 4R-TK-CAT vector, it causes expression of the chloramphenical acetyltransferase (CAT) gene. The protein product of the CAT gene has an enzymatic activity that can be quantified. Uptake of the various plasmids was normalized to the expression of luciferase activity from a separate plasmid added in equal amounts to all cultures.

E12 [7] = molecular target: T1, E12; assay: 4R-TK-CAT reporter assay with E12 plasmid alone in mammalian culture cells; format: cell-based; details: E12 plasmid without Id1, tetracycline 100
Text: as §5

## CN(C)[C@@H]1C(O)=C(C(N)=O)C(=O)[C@@]2(O)C(O)=C3C(=O)c4c(O)cccc4[C@@](C)(O)[C@H]3C[C@@H]12 [tetracycline, [4S-(4I,5aI,5aI,6J,12aI)]-4-(Dimethylamino)-1,4,4a,5,5a,6-11,12a-octahydro-3,6, 10,12,12a-peiztaiydroxy-6-methyl-1,11-dioxo-2-naphthacenecarboxamide]
E12 [1]
  Binding of radiolabeled tetracycline to E12 (lane 2): did not bind
E47
  Binding of radiolabeled tetracycline to E47 (lane 6): did not bind
[2]
  Binding of radiolabeled tetracycline to Hsp90 (lane 1): did not bind
[3]
  Binding of radiolabeled tetracycline to old Id having a perturbed conformation (lane 3): no radiolabeled tetracycline was detected
[4]
  Binding of radiolabeled tetracycline to native Id1 (lane 4): bound to native Id1
MyoD
  Binding of radiolabeled tetracycline to MyoD (lane 5): did not bind
Id1 [5]; 50 nanograms E47, 100 nanograms Id1, tetracycline about 200 Tg/ml, same said for lanes 6 vs 5 and 8 vs 7 (200, 400 nanograms Id1)
  E47/DNA complex band intensity with tetracycline (lane 4) versus without (lane 3): much more intense
Id1 [5]; tetracycline about 200 Tg/ml, 50 nanograms E47, 100-400 nanograms Id1
  Effect on Id activity, i.e. dimerizing with a protein member of the HLH super family, in vitro: clearly inhibits Id activity
Id1 [6]; Id1 10:1 molar excess over E12, tetracycline 100
  Effect of tetracycline on Id1 inhibition of E12 (4R-TK-CAT reporter), Id1 high: no longer effective
Id1 [6]; Id1 plasmid at 3:1 molar excess of E12, tetracycline 100
  E12 binding activity (4R-TK-CAT reporter) in presence of tetracycline, Id1 (low): partially restored
E12 [7]
  Effect of tetracycline on E12 activation of 4R-TK-CAT: not effected
